pIC50: −log10 of the molar value.
Experiments:
[1] = target: ALK (h) (Homo sapiens (Human), UniProt Q9UM73); assay: Kinase assay, single dose inhibition (Millipore, 33P-ATP filter binding); assay type: biochemical; conditions: 0.1 μM test compound, 10 μM ATP; remaining activity relative to DMSO control = 100%
[2] = target: EGFR (h) (Homo sapiens (Human), UniProt P00533); assay: as above; assay type: biochemical; conditions: 0.1 μM test compound, 10 μM ATP; remaining activity relative to DMSO control = 100%
[3] = target: EGFR (L858R) (h) (Homo sapiens (Human), UniProt P00533, L858R); assay: as above; assay type: biochemical; conditions: 0.1 μM test compound, 10 μM ATP; remaining activity relative to DMSO control = 100%
EGFR (L858R) (h), sequence (P00533 25-1210 L858R): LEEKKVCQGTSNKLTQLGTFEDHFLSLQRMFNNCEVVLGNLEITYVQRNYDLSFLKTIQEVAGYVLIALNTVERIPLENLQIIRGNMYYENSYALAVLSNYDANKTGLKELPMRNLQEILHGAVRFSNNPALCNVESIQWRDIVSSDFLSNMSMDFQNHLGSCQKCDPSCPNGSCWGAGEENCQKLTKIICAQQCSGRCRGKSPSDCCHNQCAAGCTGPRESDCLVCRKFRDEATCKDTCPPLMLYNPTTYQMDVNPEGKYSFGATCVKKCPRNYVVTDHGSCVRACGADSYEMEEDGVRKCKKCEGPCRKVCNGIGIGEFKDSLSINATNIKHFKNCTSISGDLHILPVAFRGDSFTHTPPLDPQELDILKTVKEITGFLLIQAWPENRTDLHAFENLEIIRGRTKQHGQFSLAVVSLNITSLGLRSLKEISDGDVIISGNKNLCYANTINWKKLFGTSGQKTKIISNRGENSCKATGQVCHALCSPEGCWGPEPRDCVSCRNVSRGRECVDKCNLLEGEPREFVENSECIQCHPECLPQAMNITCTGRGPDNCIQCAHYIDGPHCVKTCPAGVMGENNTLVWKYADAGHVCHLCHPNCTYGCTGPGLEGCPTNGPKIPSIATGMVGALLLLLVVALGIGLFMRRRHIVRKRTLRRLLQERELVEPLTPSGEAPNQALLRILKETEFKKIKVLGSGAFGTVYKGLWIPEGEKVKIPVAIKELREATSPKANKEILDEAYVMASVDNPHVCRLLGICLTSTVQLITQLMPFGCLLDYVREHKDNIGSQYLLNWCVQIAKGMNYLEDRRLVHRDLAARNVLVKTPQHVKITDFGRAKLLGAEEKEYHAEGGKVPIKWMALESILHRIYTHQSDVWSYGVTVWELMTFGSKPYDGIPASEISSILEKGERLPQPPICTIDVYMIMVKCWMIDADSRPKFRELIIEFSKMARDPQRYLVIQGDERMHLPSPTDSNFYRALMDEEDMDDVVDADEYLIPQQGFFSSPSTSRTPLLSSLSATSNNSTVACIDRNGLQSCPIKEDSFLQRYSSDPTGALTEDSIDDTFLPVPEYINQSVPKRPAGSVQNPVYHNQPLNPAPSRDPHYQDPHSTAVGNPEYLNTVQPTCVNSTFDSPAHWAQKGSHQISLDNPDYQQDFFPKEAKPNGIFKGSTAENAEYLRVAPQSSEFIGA

[4] = target: EGFR (T790M) (h) (Homo sapiens (Human), UniProt P00533, T790M); assay: as above; assay type: biochemical; conditions: 0.1 μM test compound, 10 μM ATP; remaining activity relative to DMSO control = 100%
[5] = target: EGFR (T790M, L858R) (h) (Homo sapiens (Human), UniProt P00533, L858R/T790M); assay: as above; assay type: biochemical; conditions: 0.1 μM test compound, 10 μM ATP; remaining activity relative to DMSO control = 100%
EGFR (T790M, L858R) (h), sequence (P00533 25-1210 T790M/L858R): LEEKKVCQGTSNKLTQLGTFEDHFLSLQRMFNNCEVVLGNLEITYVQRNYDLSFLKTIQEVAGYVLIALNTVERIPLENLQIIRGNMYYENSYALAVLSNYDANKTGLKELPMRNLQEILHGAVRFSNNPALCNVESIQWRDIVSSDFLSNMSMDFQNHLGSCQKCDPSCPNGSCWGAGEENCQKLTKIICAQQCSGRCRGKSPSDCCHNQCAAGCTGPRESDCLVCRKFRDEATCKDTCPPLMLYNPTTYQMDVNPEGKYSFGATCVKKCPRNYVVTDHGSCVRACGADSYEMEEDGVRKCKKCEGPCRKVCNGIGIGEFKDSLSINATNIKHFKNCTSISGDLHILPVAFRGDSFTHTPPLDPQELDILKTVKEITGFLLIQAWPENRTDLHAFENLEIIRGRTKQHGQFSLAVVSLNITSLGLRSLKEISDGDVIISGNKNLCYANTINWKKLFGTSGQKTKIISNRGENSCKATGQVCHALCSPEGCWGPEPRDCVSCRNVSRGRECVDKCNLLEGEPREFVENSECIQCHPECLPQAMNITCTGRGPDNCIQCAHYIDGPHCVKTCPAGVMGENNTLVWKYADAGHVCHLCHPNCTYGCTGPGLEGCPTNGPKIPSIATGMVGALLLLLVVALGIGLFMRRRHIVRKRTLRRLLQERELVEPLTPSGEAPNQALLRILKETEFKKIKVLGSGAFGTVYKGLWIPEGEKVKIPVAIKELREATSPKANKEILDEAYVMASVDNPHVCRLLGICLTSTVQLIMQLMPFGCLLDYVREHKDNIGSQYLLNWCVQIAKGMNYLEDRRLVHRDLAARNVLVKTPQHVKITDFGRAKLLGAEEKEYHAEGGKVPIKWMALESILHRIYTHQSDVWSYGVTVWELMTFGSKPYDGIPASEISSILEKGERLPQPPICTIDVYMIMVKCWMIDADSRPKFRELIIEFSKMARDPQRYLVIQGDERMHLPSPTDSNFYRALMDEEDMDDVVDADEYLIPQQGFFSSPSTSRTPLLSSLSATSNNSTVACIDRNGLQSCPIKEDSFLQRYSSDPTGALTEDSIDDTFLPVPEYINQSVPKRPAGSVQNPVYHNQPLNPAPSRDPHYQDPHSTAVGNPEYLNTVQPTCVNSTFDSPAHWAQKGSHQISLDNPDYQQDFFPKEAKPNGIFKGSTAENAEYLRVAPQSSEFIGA

[6] = tested on: H1975 (EGFR L858R/T790M) NSCLC cells; assay: Cell proliferation assay (MTS cell viability); assay type: cell-based; conditions: Homo sapiens, NCI-H1975, 72 h; H1975 cells, 3 days of exposure, MTS
[7] = tested on: HCC827 (EGFR Del) NSCLC cells; assay: Cell proliferation assay (MTS cell viability); assay type: cell-based; conditions: Homo sapiens, 72 h; HCC827 cells, 3 days of exposure, MTS
[8] = tested on: A549 (EGFR WT) NSCLC cells; assay: Cell proliferation assay (MTS cell viability); assay type: cell-based; conditions: Homo sapiens, 72 h; A549 cells, 3 days of exposure, MTS
[9] = tested on: A431 (EGFR WT) cells; assay: Cell proliferation assay (MTS cell viability); assay type: cell-based; conditions: Homo sapiens, A-431, 72 h, 3 days of exposure

ALK (h), sequence (Q9UM73 19-1620): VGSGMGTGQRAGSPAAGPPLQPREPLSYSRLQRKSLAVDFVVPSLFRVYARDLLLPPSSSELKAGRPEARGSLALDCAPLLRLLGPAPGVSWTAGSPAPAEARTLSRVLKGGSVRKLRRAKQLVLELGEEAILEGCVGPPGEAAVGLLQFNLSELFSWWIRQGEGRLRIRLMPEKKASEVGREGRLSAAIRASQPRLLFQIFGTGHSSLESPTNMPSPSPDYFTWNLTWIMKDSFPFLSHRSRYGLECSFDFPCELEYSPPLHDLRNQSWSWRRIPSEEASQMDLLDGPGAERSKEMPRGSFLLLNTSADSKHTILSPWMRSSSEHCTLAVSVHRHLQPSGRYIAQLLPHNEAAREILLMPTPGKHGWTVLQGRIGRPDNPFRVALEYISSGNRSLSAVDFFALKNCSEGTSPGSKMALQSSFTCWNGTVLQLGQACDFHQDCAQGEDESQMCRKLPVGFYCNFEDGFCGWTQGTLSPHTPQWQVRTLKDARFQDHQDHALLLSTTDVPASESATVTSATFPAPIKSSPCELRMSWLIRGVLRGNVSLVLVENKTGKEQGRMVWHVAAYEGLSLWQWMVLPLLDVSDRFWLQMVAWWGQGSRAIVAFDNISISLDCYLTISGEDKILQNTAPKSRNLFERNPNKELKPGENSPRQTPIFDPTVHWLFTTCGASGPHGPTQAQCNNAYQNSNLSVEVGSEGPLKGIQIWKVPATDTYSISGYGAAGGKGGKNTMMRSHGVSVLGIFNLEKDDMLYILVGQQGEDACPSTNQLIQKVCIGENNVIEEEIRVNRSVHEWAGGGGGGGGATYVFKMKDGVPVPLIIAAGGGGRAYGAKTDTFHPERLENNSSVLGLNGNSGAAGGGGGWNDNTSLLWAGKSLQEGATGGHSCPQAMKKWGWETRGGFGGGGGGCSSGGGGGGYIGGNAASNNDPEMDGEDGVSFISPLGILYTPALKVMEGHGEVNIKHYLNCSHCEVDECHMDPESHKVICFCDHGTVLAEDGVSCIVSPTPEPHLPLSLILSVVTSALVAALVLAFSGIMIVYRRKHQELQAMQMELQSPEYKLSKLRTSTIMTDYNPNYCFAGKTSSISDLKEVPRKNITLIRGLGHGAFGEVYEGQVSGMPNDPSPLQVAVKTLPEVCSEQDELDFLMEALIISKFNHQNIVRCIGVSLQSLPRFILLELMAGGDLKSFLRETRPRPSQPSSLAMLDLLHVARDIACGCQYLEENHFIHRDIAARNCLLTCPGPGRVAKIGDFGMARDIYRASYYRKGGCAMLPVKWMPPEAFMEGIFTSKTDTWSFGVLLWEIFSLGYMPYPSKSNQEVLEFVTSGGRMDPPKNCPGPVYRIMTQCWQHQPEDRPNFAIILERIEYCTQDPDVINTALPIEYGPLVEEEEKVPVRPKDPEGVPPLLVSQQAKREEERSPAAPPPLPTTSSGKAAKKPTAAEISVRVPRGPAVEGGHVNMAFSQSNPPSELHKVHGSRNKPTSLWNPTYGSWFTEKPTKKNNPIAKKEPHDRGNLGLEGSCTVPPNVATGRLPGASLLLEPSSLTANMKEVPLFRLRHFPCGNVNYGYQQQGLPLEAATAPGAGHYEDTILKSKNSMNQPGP

pIC50 [6]	pIC50 [7]	pIC50 [8]	pIC50 [9]	Structure (SMILES)	Activity (control) % ALK (h) [1]	Activity (control) % EGFR (h) [2]	Activity (control) % EGFR (L858R) (h) [3]	Activity (control) % EGFR (T790M) (h) [4]	Activity (control) % EGFR (T790M, L858R) (h) [5]
8.00	7.70	–	6.68	C=C(CN(C)CCN(C)C)C(=O)Nc1ccc(OC)c(Nc2ncc(Cl)c(Nc3ccccc3C(=O)C(=O)N(C)C)n2)c1 [Example 126, N-(3-(5-chloro-4-(2-(2-(dimethylamino)-2-oxoactyl)phenylamino)pyrimidin-2-ylamino)-4-methoxyphenyl)-2-(((2-(dimethylamino)ethyl)(methyl)amino)methyl)acrylamide]	19%	93%	47%	5%	2%
< 5.52	5.63	< 5.52	–	COc1cc(Nc2ncc(Cl)c(Nc3ccccc3C(=O)C(=O)N(C)C)n2)ccc1F [Example 62, 2-(2-(5-chloro-2-(4-fluoro-3-methoxyphenylamino)pyrimidin-4-ylamino)phenyl)-N,N-dimethyl-2-oxoacetamide]	–	–	–	–	–
6.51	5.98	5.86	–	C/C=C/C(=O)Nc1ccc(OC)c(Nc2ncc(Cl)c(Nc3ccccc3C(=O)C(=O)N(C)C)n2)c1 [Example 70, (E)-N-(3-(5-chloro-4-(2-(2-(dimethylamino)-2-oxoacetyl)phenylamino)pyrimidin-2-ylamino)-4-methoxyphenyl)but-2-enamide]	–	–	–	–	–
6.19	5.92	< 5.52	–	C=CC(=O)Nc1cc(Nc2ncc(Cl)c(Nc3ccccc3C(=O)C(=O)NC)n2)c(F)cc1OC [Example 68, N-(5-(5-chloro-4-(2-(2-(methylamino)-2-oxoacetyl)phenylamino)pyrimidin-2-ylamino)-4-fluoro-2-methoxyphenyl)acrylamide]	–	–	–	–	–
6.01	6.28	6.43	–	C=CC(=O)Nc1cccc(Nc2ncc(C(F)(F)F)c(Nc3ccccc3C(=O)C(N)=O)n2)c1 [Example 58, N-(3-(4-(2-(2-amino-2-oxoacetyl)phenylamino)-5-(trifluoromethyl)pyrimidin-2-ylamino)phenyl)acrylamide]	–	–	–	–	–
6.82	6.06	5.68	–	CNC(=O)C(=O)c1ccccc1Nc1nc(Nc2ccc(N3CCN(C)CC3)c(OC)c2)ncc1Cl [Example 60, 2-(2-(5-chloro-2-(3-methoxy-4-(4-methylpiperazin-1-yl)phenylamino)pyrimidin-4-ylamino)phenyl)-N-methyl-2-oxoacetamide]	–	–	–	–	–
6.72	< 5.52	< 5.52	–	C=CC(=O)N1CCC(NC(=O)C(=O)c2ccccc2Nc2nc(Nc3ccc(F)c(OC)c3)ncc2Cl)CC1 [Example 59, N-(1-acryloylpiperidin-4-yl)-2-(2-(5-chloro-2-(4-fluoro-3-methoxyphenylamino)pyrimidin-4-ylamino)phenyl)-2-oxoacetamide]	–	–	–	–	–
6.51	5.92	< 5.52	–	C=CC(=O)Nc1cc(Nc2ncc(Cl)c(Nc3ccccc3C(=O)C(=O)N(C)C)n2)c(F)cc1OC [Example 69, N-(5-(5-chloro-4-(2-(2-(dimethylamino)-2-oxoactyl)phenylamino)pyrimidin-2-ylamino)-4-fluoro-2-methoxyphenyl)acrylamide]	–	–	–	–	–

Continued, compound first:

Structure (SMILES)	pIC50 [6]	pIC50 [7]	pIC50 [8]	pIC50 [9]	Activity (control) % ALK (h) [1]	Activity (control) % EGFR (h) [2]	Activity (control) % EGFR (L858R) (h) [3]	Activity (control) % EGFR (T790M) (h) [4]	Activity (control) % EGFR (T790M, L858R) (h) [5]
C=CC(=O)Nc1cc(Nc2ncc(Cl)c(Nc3ccccc3C(=O)C(=O)NC)n2)ccc1OC [Example 64, N-(5-(5-chloro-4-(2-(2-(methylamino)-2-oxoacetyl)phenylamino)pyrimidin-2-ylamino)-2-methoxyphenyl)acrylamide]	7.05	6.35	< 5.52	–	47%	106%	100%	79%	39%
COc1cc(N2CCC(N(C)C)CC2)ccc1Nc1ncc(Cl)c(Nc2ccccc2C(=O)C(N)=O)n1 [Example 4, 2-(2-(5-chloro-2-(4-(4-(dimethylamino)piperidin-1-yl)-2-methoxyphenylamino)pyrimidin-4-ylamino)phenyl)-2-oxoacetamide]	< 5.52	5.58	< 5.52	–	8%	65%	8%	4%	2%
CNC(=O)C(=O)c1ccccc1Nc1nc(Nc2ccc(N3CCC(N(C)C)CC3)cc2OC)ncc1Cl [Example 16, 2-(2-((5-chloro-2-((4-(4-(dimethylamino)piperidin-1-yl)-2-methoxyphenyl)amino)pyrimidin-4-yl)amino)phenyl)-N-methyl-2-oxoacetamide]	5.95	6.05	< 5.52	–	–	–	–	–	–
C=CC(=O)Nc1cccc(Nc2ncc(Cl)c(Nc3ccccc3C(=O)C(=O)NC)n2)c1 [Example 57, N-(3-(5-chloro-4-(2-(2-(methylamino)-2-oxoacetyl)phenylamino)pyrimidin-2-ylamino)phenyl)acrylamide]	7.00	6.57	< 5.52	–	–	–	–	–	–
COc1cc(N2CCC(N(C)C)CC2)ccc1Nc1ncc(C(F)(F)F)c(Nc2ccccc2C(=O)C(=O)N2CCOCC2)n1 [Example 45, 1-(2-(2-(4-(4-(dimethylamino)piperidin-1-yl)-2-methoxyphenylamino)-5-(trifluoromethyl)pyrimidin-4-ylamino)phenyl)-2-morpholinoethane-1,2-dione]	< 5.52	< 5.52	< 5.52	–	–	–	–	–	–
COc1cc(N2CCN(C(C)=O)CC2)ccc1Nc1ncc(Cl)c(Nc2ccccc2C(=O)C(=O)N2CCOCC2)n1 [Example 42, 1-(2-(2-(4-(4-acetylpiperazin-1-yl)-2-methoxyphenylamino)-5-chloropyrimidin-4-ylamino)phenyl)-2-morpholinoethane-1,2-dione]	< 5.52	< 5.52	< 5.52	–	–	–	–	–	–
COc1cc(N2CCC(N(C)C)CC2)ccc1Nc1ncc(Cl)c(Nc2ccccc2C(=O)C(=O)NO)n1 [Example 3, 2-(2-(5-chloro-2-(4-(4-(dimethylamino)piperidin-1-yl)-2-methoxyphenylamino)pyrimidin-4-ylamino)phenyl)-N-hydroxy-2-oxoacetamide]	6.08	6.03	< 5.52	–	–	–	–	–	–
COc1cc(N2CCN(C)CC2)ccc1Nc1ncc(Cl)c(Nc2ccccc2C(=O)C(=O)N2CCOCC2)n1 [Example 44, 1-(2-(5-chloro-2-(2-methoxy-4-(4-methylpiperazin-1-yl)phenylamino)pyrimidin-4-ylamino)phenyl)-2-morpholinoethane-1,2-dione]	5.91	5.63	< 5.52	–	–	–	–	–	–
C=CC(=O)Nc1ccc(OC)c(Nc2ncc(Cl)c(Nc3ccccc3C(=O)C(=O)N(CC)CC)n2)c1 [Example 131, N-(3-(5-chloro-4-(2-(2-(diethylamino)-2-oxoacetyl)phenylamino)pyrimidin-2-ylamino)-4-methoxyphenyl)acrylamide]	8.00	7.30	–	6.12	9%	104%	104%	82%	27%
C=CC(=O)Nc1cccc(Nc2ncc(Cl)c(Nc3ccccc3C(=O)C(=O)N(C)C)n2)c1 [Example 40, N-(3-(5-chloro-4-(2-(2-(dimethylamino)-2-oxoacetyl)phenylamino)pyrimidin-2-ylamino)phenyl)acrylamide]	8.00	7.15	6.19	–	28%	106%	103%	79%	24%
COc1cc(N2CCN(C)CC2)ccc1Nc1ncc(C(F)(F)F)c(Nc2ccccc2C(=O)C(=O)N2CCOCC2)n1 [Example 43, 1-(2-(2-(2-methoxy-4-(4-methylpiperazin-1-yl)phenylamino)-5-(trifluoromethyl)pyrimidin-4-ylamino)phenyl)-2-morpholinoethane-1,2-dione]	< 5.52	< 5.52	< 5.52	–	–	–	–	–	–
CNC(=O)C(=O)c1ccccc1Nc1nc(Nc2ccc(N3CCN(C)CC3)cc2OC)ncc1Cl [Example 47, 2-(2-(5-chloro-2-(2-methoxy-4-(4-methylpiperazin-1-yl)phenylamino)pyrimidin-4-ylamino)phenyl)-N-methyl-2-oxoacetamide]	< 5.52	< 5.52	< 5.52	–	–	–	–	–	–
COc1cc(N2CCC(N(C)C)CC2)ccc1Nc1ncc(Cl)c(Nc2ccccc2C(=O)C(=O)N(C)C)n1 [Example 17, 2-(2-((5-chloro-2-((4-(4-(dimethylamino)piperidin-1-yl)-2-methoxyphenyl)amino)pyrimidin-4-yl)amino)phenyl)-N,N-dimethyl-2-oxoacetamide]	6.07	5.91	< 5.52	6.59	–	–	–	–	–
COc1cc(N2CCN(C)CC2)ccc1Nc1ncc(Cl)c(Nc2ccccc2C(=O)C(=O)N(C)C)n1 [Example 46, 2-(2-(5-chloro-2-(2-methoxy-4-(4-methylpiperazin-1-yl)phenylamino)pyrimidin-4-ylamino)phenyl)-N,N-dimethyl-2-oxoacetamide]	6.09	5.79	< 5.52	–	–	–	–	–	–

From US10059688B2, “Protein tyrosine kinase modulators and methods of use” (BETTA PHARMACEUTICALS CO., LTD., priority 2013, dated 2018)
